# Assay results published in PubChem BioAssay AID2060905 (Molecular Pharmacology Branch, DTP, NCI, 2025).
# Tested on: 282377-053-R-J1-PDC complex spheroid viability
# Test: Anticancer human tumor 282377-053-R-J1-PDC patient-derived colon adenocarcinoma cell line growth inhibition [RAS]
# Settings: for IC50: curve of first compound; for viability, T/C: stronger effect = lower value
# Text: RAS pathway inhibitors in Combinations in Complex Spheroids
# A high-throughput screen of multi-cell type tumor spheroids was designed to identify active combinations of RAS pathway inhibitors and targeted small molecules. Complex spheroids include a stromal component modeled by human endothelial cells (HUVEC) and fibroblasts modeled by human mesenchymal stem cells (MSCs). The concentration ranges selected for each drug and investigational agent were based upon clinically achievable concentrations if the clinical Cmax of the agent was known.
# Compounds. The drugs and investigational agents: abemaciclib (NSC768073), cobimetinib (NSC768068), divarasib (GDC6063, NSC841802), docetaxel (NSC628503), GDC-1971 (RLY-1971, NSC841576), gemcitabine (NSC613327), inavolisib (NSC800729), ipatasertib (NSC767898), KB-0742 (NSC834161), MRTX-1133 (NSC836407), osimertinib (NSC779217), RMC-4630 (NSC839698), RMC-6236 (NSC851965), RMC-6291 (NSC852671), Ro-3306 (NSC812927), sapanisertib (NSC764658), SN-38 (NSC673596), staurosporine (NSC755774), SY5609 (NSC837396), and tovorafenib (DAY101, NSC766906), were obtained from the National Cancer Institute (NCI) Developmental Therapeutics Program Chemical Repository. The FDA-approved anticancer drug set is available from the NCI Developmental Therapeutics Program. […] The stock solutions were prepared in dimethyl sulfoxide (DMSO, Sigma-Aldrich, St. Louis, MO, cat. D2650) at 800-fold the tested concentration and stored at -70 degrees C prior to their use. All drugs and investigational agents were tested over a range starting from a high concentration at or near the clinical Cmax and decreasing in half-log increments. If the clinical Cmax for an agent had not been determined, the highest concentration tested was 10 microM.
# Cell Culture. All cells were maintained in an incubator at 37 degrees C and 5% CO2 with 95% humidity. The PDC lines were cultured according to standard operating procedures established by the NCI PDMR. All PDCs were thawed and cultured in Matrigel-coated flasks prepared with a working solution of 1X Ham's F-12 nutrient mix, without supplementation (Invitrogen, Waltham, MA, cat. 11765054), 100 U/mL penicillin-streptomycin (Invitrogen, cat. 15140122), and 2.5% Matrigel (Corning Inc., Corning, NY, cat. 354248) for the first three passages. The 362531-283-R-J2-PDC and 782815-120-R-J1-PDC lines were cultured in 6C/Colon 1B media, which includes advanced DMEM/F-12 (Thermo Fisher Scientific, cat. 12634028), 10 mM HEPES (Thermo Fisher Scientific, cat. 15630080), 1X GlutaMAX supplement (Thermo Fisher Scientific, cat. 35050061), 0.1 mg/mL primocin (InvivoGen, San Diego, CA, cat. ant-pm-2), 10% defined fetal bovine serum, heat inactivated (HyClone Laboratories Inc., Logan, UT, cat. SH30070.03HI), 50% L-WRN conditioned media (ATCC, cat. CRL-3276), 1.25 mM N-Acetyl-L-cysteine (Sigma-Aldrich, cat. A9165), 10 mM nicotinamide (Sigma-Aldrich, cat. N0636), 1X B-27 supplement (Thermo Fisher Scientific, cat. 17504044), 1X N-2 supplement (Thermo Fisher Scientific, cat. 17502048), 50 ng/mL human EGF (Thermo Fisher Scientific, cat. PHG0311), and 10 microM Y-27632 dihydrochloride (Tocris Bioscience, cat. 1254). The K12877-001-R-J1-PDC line was cultured in 6I media, which includes all 6C/Colon 1B media plus 10 ng/mL human FGF-10 (PeproTech, cat. 100-26), 1 ng/mL human FGF-2 (PeproTech, cat. 100-18B), 1 µM prostaglandin E2 (Tocris Bioscience, cat. 2296), […] hydrocortisone (Sigma-Aldrich, cat. H4001), and […] bovine insulin (Sigma-Aldrich, cat. I6634). The K86415-001-R-J1-PDC line was cultured in 6D media, which includes all 6C/Colon 1B media components minus the L-WRN conditioned media. The 485176-168-R4-J1-PDC was cultured in PANC media, which includes all 6C/Colon 1B media plus 100 ng/mL human FGF-10 (PeproTech, cat. 100-26), 500 nM SB-431542 (Selleckchem, cat. S1067), and 10 nM gastrin (Tocris Bioscience, cat. 3006). […]
# [1] = second compound 0.0316 µM, first compound 0.00316 µM
# [2] = second compound 0.0316 µM, first compound 0.01 µM
# [3] = second compound 0.0316 µM, first compound 0.0316 µM
# [4] = second compound 0.0316 µM, first compound 0.1 µM
# [5] = second compound 0.0316 µM, first compound 0.316 µM
# [6] = second compound 0.0316 µM, first compound 1 µM
# [7] = second compound 0.1 µM, first compound 0.00316 µM
# [8] = second compound 0.1 µM, first compound 0.01 µM
# [9] = second compound 0.1 µM, first compound 0.0316 µM
# [10] = second compound 0.1 µM, first compound 0.1 µM
# [11] = second compound 0.1 µM, first compound 0.316 µM
# [12] = second compound 0.1 µM, first compound 1 µM
# [13] = second compound 0.316 µM, first compound 0.00316 µM
# [14] = second compound 0.316 µM, first compound 0.01 µM
# [15] = second compound 0.316 µM, first compound 0.0316 µM
# [16] = second compound 0.316 µM, first compound 0.1 µM
# [17] = second compound 0.316 µM, first compound 0.316 µM
# [18] = second compound 0.316 µM, first compound 1 µM
# [19] = second compound 1 µM, first compound 0.00316 µM
# [20] = second compound 1 µM, first compound 0.01 µM
# [21] = second compound 1 µM, first compound 0.0316 µM
# [22] = second compound 1 µM, first compound 0.1 µM
# [23] = second compound 1 µM, first compound 0.316 µM
# [24] = second compound 1 µM, first compound 1 µM
# [25] = second compound 3.16 µM, first compound 0.00316 µM
# [26] = second compound 3.16 µM, first compound 0.01 µM
# [27] = second compound 3.16 µM, first compound 0.0316 µM
# [28] = second compound 3.16 µM, first compound 0.1 µM
# [29] = second compound 3.16 µM, first compound 0.316 µM
# [30] = second compound 3.16 µM, first compound 1 µM
# [31] = second compound 10 µM, first compound 0.00316 µM
# [32] = second compound 10 µM, first compound 0.01 µM
# [33] = second compound 10 µM, first compound 0.0316 µM
# [34] = second compound 10 µM, first compound 0.1 µM
# [35] = second compound 10 µM, first compound 0.316 µM
# [36] = second compound 10 µM, first compound 1 µM
# 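Note: spheroids exposed to agents for seven days before readout.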
# 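Throughout, for viability, T/C: luminescence viability as percent of DMSO vehicle control wells.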
smiles,measurement,setting,value
C=CC(=O)Nc1cc(Nc2nccc(-c3cn(C)c4ccccc34)n2)c(OC)cc1N(C)CCN(C)C + C#Cc1c(F)ccc2cc(O)cc(-c3ncc4c(N5CC6CCC(C5)N6)nc(OCC56CCCN5CC(F)C6)nc4c3F)c12,IC50,second compound 0.0316 µM,> 1000 nM
same,IC50,second compound 0.1 µM,> 1000 nM
same,IC50,second compound 0.316 µM,> 1000 nM
same,IC50,second compound 1 µM,> 1000 nM
same,IC50,second compound 3.16 µM,> 1000 nM
same,IC50,second compound 10 µM,> 1000 nM
same,"viability, T/C",[1],104%
same,"viability, T/C",[2],91.5%
same,"viability, T/C",[3],98.2%
same,"viability, T/C",[4],104%
same,"viability, T/C",[5],95.6%
same,"viability, T/C",[6],110%
same,"viability, T/C",[7],96.6%
same,"viability, T/C",[8],90.4%
same,"viability, T/C",[9],99.9%
same,"viability, T/C",[10],91.9%
same,"viability, T/C",[11],93.5%
same,"viability, T/C",[12],97.4%
same,"viability, T/C",[13],88.1%
same,"viability, T/C",[14],85.3%
same,"viability, T/C",[15],84.9%
same,"viability, T/C",[16],86.1%
same,"viability, T/C",[17],91.7%
same,"viability, T/C",[18],85.9%
same,"viability, T/C",[19],98.5%
same,"viability, T/C",[20],100%
same,"viability, T/C",[21],93%
same,"viability, T/C",[22],108%
same,"viability, T/C",[23],82.8%
same,"viability, T/C",[24],95.9%
same,"viability, T/C",[25],88.2%
same,"viability, T/C",[26],87.8%
same,"viability, T/C",[27],114%
same,"viability, T/C",[28],92.3%
same,"viability, T/C",[29],108%
same,"viability, T/C",[30],101%
same,"viability, T/C",[31],103%
same,"viability, T/C",[32],94.9%
same,"viability, T/C",[33],108%
same,"viability, T/C",[34],73%
same,"viability, T/C",[35],80.1%
same,"viability, T/C",[36],99.2%
CC(Nc1ccc2c(c1)OCCn1cc(N3C(=O)OCC3C(F)F)nc1-2)C(N)=O (stereo unspecified) + C#Cc1c(F)ccc2cc(O)cc(-c3ncc4c(N5CC6CCC(C5)N6)nc(OCC56CCCN5CC(F)C6)nc4c3F)c12,IC50,second compound 0.0316 µM,> 10000 nM
same,IC50,second compound 0.1 µM,> 10000 nM
same,IC50,second compound 0.316 µM,> 10000 nM
same,IC50,second compound 1 µM,> 10000 nM
same,IC50,second compound 3.16 µM,> 10000 nM
same,IC50,second compound 10 µM,> 10000 nM
same,"viability, T/C",[3],109%
same,"viability, T/C",[4],84.6%
same,"viability, T/C",[5],88.8%
same,"viability, T/C",[6],96%
same,"viability, T/C","second compound 0.0316 µM, first compound 3.16 µM",90.2%
same,"viability, T/C","second compound 0.0316 µM, first compound 10 µM",72.8%
same,"viability, T/C",[9],101%
same,"viability, T/C",[10],85.7%
same,"viability, T/C",[11],93.1%
same,"viability, T/C",[12],97.3%
same,"viability, T/C","second compound 0.1 µM, first compound 3.16 µM",91.1%
same,"viability, T/C","second compound 0.1 µM, first compound 10 µM",72.6%
same,"viability, T/C",[15],131%
same,"viability, T/C",[16],92.7%
same,"viability, T/C",[17],78.2%
same,"viability, T/C",[18],104%
same,"viability, T/C","second compound 0.316 µM, first compound 3.16 µM",74.7%
same,"viability, T/C","second compound 0.316 µM, first compound 10 µM",96.1%
same,"viability, T/C",[21],95.7%
same,"viability, T/C",[22],97.8%
same,"viability, T/C",[23],98.7%
same,"viability, T/C",[24],100%
same,"viability, T/C","second compound 1 µM, first compound 3.16 µM",88.5%
same,"viability, T/C","second compound 1 µM, first compound 10 µM",93.3%
same,"viability, T/C",[27],90.5%
same,"viability, T/C",[28],88.8%
same,"viability, T/C",[29],88.3%
same,"viability, T/C",[30],77.5%
same,"viability, T/C","second compound 3.16 µM, first compound 3.16 µM",76.6%
same,"viability, T/C","second compound 3.16 µM, first compound 10 µM",76.9%
same,"viability, T/C",[33],102%
same,"viability, T/C",[34],101%
same,"viability, T/C",[35],97%
same,"viability, T/C",[36],81.2%
same,"viability, T/C","second compound 10 µM, first compound 3.16 µM",90%
same,"viability, T/C","second compound 10 µM, first compound 10 µM",78.5%
O=C(c1ccc(F)c(F)c1Nc1ccc(I)cc1F)N1CC(O)([C@@H]2CCCCN2)C1 + C#Cc1c(F)ccc2cc(O)cc(-c3ncc4c(N5CC6CCC(C5)N6)nc(OCC56CCCN5CC(F)C6)nc4c3F)c12,IC50,second compound 0.0316 µM,80 nM
same,IC50,second compound 0.1 µM,63.5 nM
same,IC50,second compound 0.316 µM,50.4 nM
same,IC50,second compound 1 µM,45.5 nM
same,IC50,second compound 3.16 µM,42.5 nM
same,IC50,second compound 10 µM,24.9 nM
same,"viability, T/C",[1],92%
same,"viability, T/C",[2],73%
same,"viability, T/C",[3],80.9%
same,"viability, T/C",[4],42.3%
same,"viability, T/C",[5],27.6%
same,"viability, T/C",[6],19.7%
same,"viability, T/C",[7],86.3%
same,"viability, T/C",[8],75.2%
same,"viability, T/C",[9],62.5%
same,"viability, T/C",[10],42.5%
same,"viability, T/C",[11],26%
same,"viability, T/C",[12],16.9%
same,"viability, T/C",[13],87.7%
same,"viability, T/C",[14],77.5%
same,"viability, T/C",[15],58.5%
same,"viability, T/C",[16],37.2%
same,"viability, T/C",[17],23%
same,"viability, T/C",[18],15.6%
same,"viability, T/C",[19],75.3%
same,"viability, T/C",[20],77.1%
same,"viability, T/C",[21],59.1%
same,"viability, T/C",[22],29%
same,"viability, T/C",[23],20.5%
same,"viability, T/C",[24],14.9%
same,"viability, T/C",[25],79.8%
same,"viability, T/C",[26],75.6%
same,"viability, T/C",[27],56.4%
same,"viability, T/C",[28],30.5%
same,"viability, T/C",[29],20.7%
same,"viability, T/C",[30],15.6%
same,"viability, T/C",[31],97.2%
same,"viability, T/C",[32],75.1%
same,"viability, T/C",[33],41.8%
same,"viability, T/C",[34],25.4%
same,"viability, T/C",[35],17.5%
same,"viability, T/C",[36],12.1%
